Data as given in US5292521A, “Solid oral preparation containing a pyrrolidine derivative with a catechol group” (priority 1990, dated 1994).
Where two headings read alike, the source gives them in different places. Each block holds one molecule with its values, some of them ahead of it.

Key:
[1] = Correlation between AUC and oral dose in beagles, powder of ten-fold dilution with lactose in capsule; bioavailability from regression line (Experimental Example 2); format: in vivo; settings: oral
Description: Compound (VIII) or compound V was formulated into a powder of ten-fold dilution with lactose. It was given to beagles in an amount ranging from 0.3 to 30 mg/kg as a capsule by oral administration and the plasma concentration-time curve thereof was prepared. The regression line equation was as follows: […]

[2] = Drug disposition after intravenous injection to beagles, plasma concentration-time curve (Experimental Example 1); format: in vivo; settings: dog, 1 mg/kg iv; for half-life: iv, 1 mg/kg
Description: 1 mg/kg of compound (VIII) was administered to beagles by intravenous injection and the plasma concentration-time curve thereof of prepared to find that the half-life composed of three phases (phases a, b and c).

[3] = Oral administration to fasted beagles of compound (II) or (III) with ascorbic acid, plasma drug disposition parameters (Experimental Examples 5 and 6); settings: for AUC(0-t) at 8 h / Cmax / Tmax: po, 3 mg/kg, n=2; for AUC(0-t) at 8 h: AUC (0-8 hr) mean ± SE; for Cmax: Cmax mean ± SE; for Tmax: Tmax mean ± SE
Description: The term "bioavailability" herein is defined as follows: a plasma concentration-time curve of a drug after being administered once is prepared in each case of administration by intravenous injection and oral administration with the same amount of the drug, and the availability is represented by the ratio (F) of the area under the plasma concentration-time curve in the case of oral administration ([AUC]PO)to the area under the plasma concentration-time curve in the case of intravenous injection ([AUC]IV): [formula]
The ratio of an AUC value obtained when one or more compounds selected from the group consisting of organic acids and salts thereof are added to an AUC value obtained when no such compound(s) is (are) added will be referred to as "addition effect ratio".
350 mg of ascorbic acid and 70 mg of lactose were added to 70 mg of compound (II) and the mixture was thoroughly pulverized and mixed in a mortar. The mixture was filled in each of No. 2 gelatin capsules in such an amount that the dose of compound (II) would be 3 mg/kg to obtain a preparation.
A control sample free from ascorbic acid was prepared by preparing a powder of 7-fold dilution with lactose (70 mg of compound (II) plus 420 mg of lactose) and filled in No. 2 capsules in such an amount that the dose of compound (II) would be 3 mg/kg to obtain a preparation.
(a) Administration and collection of blood sample
(§1) Four beagles were divided into two groups (i.e. a group to which ascorbic acid was given and a control group) after fasting overnight (14 hours) and a preparation comprising 3 mg/kg of compound (II) and 15 mg/kg of ascorbic acid or a control preparation comprising no ascorbic acid was given together with 30 ml of water by oral administration. No food was given also in the course of collection of blood sample. 3 ml of the whole blood was sampled through a vein of a foreleg by means of a heparinized syringe, immediately cooled with ice/water and centrifuged (1200 rpm, 3 min, 4° C.). The blood plasma was separated and a citrate buffer solution (pH 3.5, 100 μl) was added thereto to adjust the pH to 5.0. The plasma thus treated was kept frozen at -20° C. The points of collection of blood samples were before the administration and 10, 20, 30 and 45 minutes and 1, 1.5, 2, 3, 4, 6 and 8 hours after the administration.
(b) Method of analysis of concentration of unchanged substance in blood plasma
(c) HPLC determination conditions
The drug disposition parameters of each sample were determined from the data obtained by the oral administration of the preparation comprising 3 mg/kg of compound (II) and 15 mg/kg of ascorbic acid or a control preparation comprising no ascorbic acid to beagles while they were kept fasting.
350 mg of ascorbic acid and 70 mg of lactose were added to 70 mg of compound (III) and the mixture was thoroughly pulverized and mixed in a mortar. The mixture was filled in each of No. 2 gelatin capsules in such an amount that the dose of compound (III) would be 3 mg/kg to obtain a preparation.
A control sample free from ascorbic acid was prepared by preparing a powder of 7-fold dilution with lactose (70 mg of compound (III) plus 420 mg of lactose) and filled in No. 2 capsules in such an amount that the dose of compound (III) would be 3 mg/kg to obtain a preparation.
as §1, with “(III)” for “(II)”, “syringe,” for “syringe, immediately”, “5.0.” for “5.0. The plasma thus treated was kept frozen at -20° C. The points of collection of blood samples were before the administration and 10, 20, 30 and 45 minutes and 1, 1.5, 2, 3, 4, 6 and 8 hours after the administration.”

[4] = dog, in vivo, 3 mg/kg oral + ascorbic acid 15 mg/kg
[5] = dog, in vivo, 3 mg/kg oral, none (control)
[6] = dog, plasma, 3 mg/kg oral + ascorbic acid 15 mg/kg
[7] = dog, plasma, 3 mg/kg oral, none (control)

bioavailability ([1]; dog, plasma, efficacious dose around 3 to 5 mg/kg): 4 to 5% | gradient of regression line log(AUC) vs log(dose) ([1]; 0.3 to 30 mg/kg): 1.218 | increase of AUC value when the dose is increased 10-fold ([1]; 0.3 to 30 mg/kg): 16.5 -fold | intercept of regression line log(AUC) vs log(dose) ([1]; 0.3 to 30 mg/kg): 0.894 | clearance ([2]; read-out: CLtotal): 78 mL/min/kg | C0 ([2]; read-out: CP^0): 2290 ng/mL | MRT ([2]; read-out: MRT (mean residence time in the plasma) (converted)): 14.5 min | Vd ([2]; read-out: Vc): 0.44 L/kg | half-life ([2]; phase a, read-out: t1/2a): 1.3 min | half-life ([2]; phase b, read-out: t1/2b): 8.11 min | half-life ([2]; phase c, read-out: t1/2c): 26.9 min
SMILES: Br.Oc1ccc([C@@H]2CNC[C@H]2c2cccc(O)c2Cl)cc1O (relative stereo) [compound (VIII), trans-3-(2-chloro-3-hydroxyphenyl)-4-(3,4-dihydroxyphenyl)pyrrolidine hydrobromide]

SMILES: Br.Oc1ccc(C2CNCc3c2ccc(O)c3O)cc1O (stereo not drawn) [compound (II), 7,8-dihydroxy-4-(3,4-dihydroxyphenyl)-1,2,3,4-tetrahydroisoquinoline hydrobromide]
Addition effect (AUC ratio) ([3]; 3 mg/kg oral + ascorbic acid 15 mg/kg): 1.39 | Addition effect (AUC ratio) ([3]; 3 mg/kg oral, none (control)): 1.00 | AUC(0-t) at 8 h [3, 4]: 116.6 ± 0.1 ng·h/mL | AUC(0-t) at 8 h [3, 5]: 83.6 ± 4.7 ng·h/mL | Cmax [3, 4]: 89.6 ± 11.8 ng/mL | Cmax [3, 5]: 95.6 ± 42.2 ng/mL | Tmax [3, 4]: 37.8 ± 7.8 min | Tmax [3, 5]: 25.2 ± 5.4 min | increase of AUC value ([3]; with ascorbic acid): about 1.4 -fold

increase of AUC value ([3]; dog, in vivo): about 3.3 -fold | AUC(0-t) at 8 h [3, 6]: 197 ± 12.5 ng·h/mL | AUC(0-t) at 8 h [3, 7]: 59.8 ± 16.9 ng·h/mL | Cmax [3, 6]: 91.9 ± 0.4 ng/mL | Cmax [3, 7]: 39 ± 16.6 ng/mL | Tmax [3, 6]: 30 ± 15 min | Tmax [3, 7]: 45 ± 15 min
SMILES: CS(=O)(=O)O.Oc1ccc(C2CNCCc3c2cc(O)c(O)c3Cl)cc1 (stereo not drawn) [compound (III), 6-chloro-2,3,4,5-tetrahydro-1-(4-hydroxyphenyl)-1H-3-benzazepine-7,8-diol methanesulfonate, reference compound]
